Reference: article PMC5550456, “Vitamin B12 as a carrier of peptide nucleic acid (PNA) into bacterial cells” (Scientific Reports, 2017)
Where no end group is shown, it is not given here.

Columns and labels:
[1] = cited from earlier work
Description: (§1) The most serious drawback, which currently precludes the use of this approach, is poor delivery of the oligonucleotides into bacterial cells. The bacterial cell wall prevents the efficient uptake of short oligonucleotides from the environment[14] and non-invasive delivery of PNAs is extremely difficult. To overcome this problem, chemical conjugation of PNA to a variety of cell-penetrating peptides has been tested, [15], [16]. The most commonly used conjugate of PNA with the peptide (KFF)3K was delivered with high efficiency in vitro. However, the activity of (KFF)3K-PNA conjugates was drama ...

[2] = test system: some mammalian cells; settings: cited from earlier work
Description: as §1

[3] = test system: mRNA of the reporter gene mrfp1 expressing Red Fluorescent Protein; experiment: Inhibition of RFP synthesis (red fluorescence) in E. coli carrying pBBR(rfp); format: cell-based, Escherichia coli K-12 MG1655; settings: overnight treatment, 0–16 µM
Procedure: E. coli TG1[58] was used for plasmid construction. For triparental mating, E. coli DH5α carried the helper plasmid pRK2013[59] and E. coli S17-1[60] was the mrfp1 plasmid donor. E. coli K-12 MG1655[61], and Salmonella enterica subsp. enterica serovar Typhimurium LT2-R (rifampicin resistant mutant of wild-type S. Typhimurium LT2[62]) were used in PNA delivery experiments. To prepare inocula, all strains were grown overnight in lysogeny broth (LB) at 37 °C with shaking. […] Cultures were supplemented with appropriate antibiotics to prevent plasmid loss.
The effect of the different PNA conjugates and controls on the red fluorescence of bacterial cells was determined using a standard microdilution method[67] in concentration range 0–16 µM. […] Following overnight incubation at 37 °C with shaking, the plates were vigorously shaken (double orbital) for 10 sec and then the cell density (OD600) and fluorescence (λ excitation – 584 nm; λ emission – 610 nm) were measured using a plate reader (Microplate Reader Biotek Synergy H1MFDG). The cell suspensions were also examined by light and fluorescence microscopy using a Nikon Eclipse Ni-U microscope (Figure S1).
To obtain relative fluorescence values (RFU), the background media noise was subtracted from each data point for both cell density (OD600) and fluorescence. […]

[4] = test system: E. coli; experiment: Effect on bacterial growth (OD600) of E. coli; format: cell-based, Escherichia coli; settings: up to the tested 16 μM concentrations
Procedure: (§2) The effect of the different PNA conjugates and controls on the red fluorescence of bacterial cells was determined using a standard microdilution method[67] in concentration range 0–16 µM. Cultures grown to exponential phase in Davis Minimal Broth were diluted to ~5 × 10^5 CFU/ml. These cell suspensions were added to wells of sterile 96-well plates containing different concentrations of the tested compounds. Following overnight incubation at 37 °C with shaking, the plates were vigorously shaken (double orbital) for 10 sec and then the cell density (OD600) and fluorescence (λ excitation – 584 nm; λ emission – 610 nm) were measured using a plate reader (Microplate Reader Biotek Synergy H1MFDG). The cell suspensions were also examined by light and fluorescence microscopy using a Nikon Eclipse Ni-U microscope (Figure S1).

[5] = test system: S. Typhimurium; experiment: Effect on bacterial growth (OD600) of S. Typhimurium; format: cell-based, Salmonella Typhimurium; settings: up to the tested 16 μM concentrations
Procedure: as §2

[6] = cited from earlier work; remark: listed apart in the source
Procedure: There was no decrease in OD600 upon overnight treatment with the conjugates (up to the tested 16 μM concentrations). Free vitamin B12 has no antibacterial activity at concentrations up to 100 μg/ml[52].

Substance	concentration with hemolytic activity [1] [ng/mL]	histamine release [2]	inhibition of RFP synthesis / mrfp1 expression (in words) [3]	bacterial growth, OD600 after overnight incubation [4]	bacterial growth, OD600 after overnight incubation [5]	concentration without antibacterial activity [6] [µg/mL]
KFFKFFKFFK-NH2 [(KFF)3K only]	40000	initiates histamine release				
cyanocobalamin [vitamin B12]			Neither B12–(CH2)12-PNA(scrambled) (Fig. 6) nor free vitamin B12 (data not shown) had any inhibitory effect	slight increase of OD600	slight increase of OD600	> 100
